How the values were obtained:
[1] = system: R. gnavus strains (ATCC 29149 and ATCC 35913); experiment: Growth of R. gnavus strains on 2,7-anhydro-Neu5Ac as sole carbon source; format: cell-based, Ruminococcus gnavus; conditions: anaerobic
Procedure: The ability of pathogens to utilise 2,7-anhydroSA as a potential nutrient by growing the cells in presence of 2,7-anhydroSA (or sialic acid as a control) as sole carbon source under anaerobic conditions is tested. […] The ability of these pathogens to utilise 2,7-anhydro-Neu5Ac is tested by growing the cells in vitro with 2,7-anhydro-Neu5Ac synthesised using the enzymatic synthesis as described above, as sole carbon source. Growth is determined spectrophotometrically and analysed using an appropriately developed DMFit program to compare the effect of the carbon source on growth rates. The impact of ITS on the ability of pathogens to grow on mucins purified from human “goblet-like” cells is tested in co-culture experiments with R. gnavus strains (ATCC 29149 expressing ITS and E1 as a negative control) in anaerobic continuous reactors.

[2] = Spontaneous conversion of 2,7-anhydro-Neu5Ac to Neu5Ac (1H NMR, HPAEC-PAD); format: physicochemical; conditions: up to 24 h at 37° C.
sialic acid aldolase = target: T1, sialic acid aldolase (Escherichia coli, UniProt P0A6L4); experiment: Degradation of 2,7-anhydro-Neu5Ac by sialic acid aldolase; format: biochemical
T1 construct: purchased Carbosynth Limited (Compton, UK)
T1 sequence (P0A6L4 whole entry): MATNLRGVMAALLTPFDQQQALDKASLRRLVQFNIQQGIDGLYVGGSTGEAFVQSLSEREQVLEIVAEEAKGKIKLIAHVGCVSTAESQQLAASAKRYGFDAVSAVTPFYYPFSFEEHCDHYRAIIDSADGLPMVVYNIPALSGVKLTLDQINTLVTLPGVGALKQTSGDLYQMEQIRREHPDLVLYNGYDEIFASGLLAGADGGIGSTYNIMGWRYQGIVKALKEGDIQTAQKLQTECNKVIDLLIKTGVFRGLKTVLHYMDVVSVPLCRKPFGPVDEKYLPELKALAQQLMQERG
Procedure: A dialysis membrane (7K MWCO) containing fetuin (0.3 mM) was incubated in 100 mM ammonium formate buffer pH 6.5 for 2 h at 37° C. under gentle shaking (115 rpm). Following the addition of 50 nM RgNanH (in Tris buffer 40 mM pH 7.9) into the dialysis membrane, the reaction mixture was further incubated in 100 mM ammonium formate buffer (pH 6.5) at 115 rpm, 37° C. for 24 h. Sialic acid aldolase (17.4 units in 100 mM ammonium formate) was added to the membrane enclosed reaction mixture. Following a further 20 h incubation at 115 rpm and 37° C., 100 mL of buffer was recovered, diluted with 100 mL of ultrapure water and freeze dried. The membrane enclosed reaction mixture was dialysed with 100 mL ultrapure water for 2 h and again overnight under 115 rpm shaking and at 37° C. The water was recovered, mixed with the dried synthesis buffer and freeze dried. After complete dryness, the powder was dissolved in 100 mL ultrapure water and freeze dried again 3 times to remove volatile salts.
Considering the difficulty and the low efficiency of the separation of free Neu5Ac from 2,7-anhydro-Neu5Ac, a commercially available sialic acid aldolase from E. coli was introduced into the dialysis membrane with RgNanH and fetuin. […]

For `CC(=O)N[C@H]1[C@H]2O[C@@](C(=O)O)(C[C@@H]1O)O[C@@H]2[C@H](O)CO` [2,7-anhydro-Neu5Ac, 2,7-anhydro-α-N-acetylneuraminic acid], the “Growth of R. gnavus strains on the compound as sole carbon source” value [1] was “able to grow”, the “Spontaneous conversion of 2,7-anhydro-Neu5Ac to Neu5Ac” value [2] was “no spontaneous conversion” and the “Degradation by sialic acid aldolase” value (sialic acid aldolase) was “resistant to degradation”.

From patent publication US20190037899A1, “Intramolecular Trans-Sialidase” (THE INSTITUTE OF FOOD RESEARCH, priority 2016, published 2019)
